Experimental data taken from ChEMBL document CHEMBL1201862, “PubChem BioAssay data set” (2004).
The source made the active and inactive calls.

What was measured:
[1] = HEp-2 cell cytotoxicity, dose response, cytotoxicity control for RSV inhibitor project, HTS (AID 2410); assay type: functional; settings: human respiratory syncytial virus
cells [2] = test: cells
cells [3] = test: cells; remark: listed apart in the source
[4] = inhibitors of intracellular T. cruzi replication, confirmation, NIH3T3 host cells, beta-gal luminescence (AID 2044); assay type: functional, cell-based;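 also: intracellular parasites grown in NIH/3T3 mouse fibroblasts as host cells; luminescent beta-galactosidase reporter signal from transgenic T. cruzi replicating inside host cells; inhibitors lower the luminescence signal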
[5] = cytotoxicity toward NIH3T3 fibroblasts, dose response, counter-screen, cell-based, ATP luminescence, mouse fibroblasts (AID 2010); assay type: functional;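 also: cells exposed to compound for about 90 hours before reading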
[6] = inhibitors of SNCA 5'UTR-driven reporter translation, confirmation, H4 neuroglioma cells, luminescence (AID 1988); assay type: functional, cell-based
[7] = cytotoxicity in HEK-293T cells, dose response, cytotoxicity control for TCR NF-kB inhibitor project, luminescence, T-cell screen hits (AID 489026); assay type: functional, cell-based;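 also: cells exposed to compound about 14 hours before the viability readout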
[8] = inhibitors of SNCA 5'UTR-driven translation, confirmation, luminescence, H4 neuroglioblastoma cells, dose confirmation (AID 2454); assay type: functional, cell-based;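 also: H4 neuroglioblastoma cells carrying an alpha-synuclein 5'UTR luciferase reporter; potency for inhibition of the luciferase signal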
[9] = luciferase reporter signal reduction – luminescence, H4-C neuroglioblastoma cells, dose response (AID 2458); assay type: functional, cell-based;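 also: H4 neuroglioblastoma cells stably carrying a luciferase reporter gene fusion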
cells [10] = assay type: functional, cell-based
[11] = inhibitors of firefly luciferase expression or activity, dose response, H4 neuroglioma cells, luminescence (AID 1990); assay type: functional, cell-based
[12] = Luminescence-based dose response cell-based high throughput screening assay for cytotoxic compounds using the IEC-6 intestinal epithelial cell line. [Related pubchem assays: 1858 (Summary AID.), 1825 (Counterscreen.), 1907 (Confirmation screen.)]; assay type: functional
[13] = inhibitors of Bluetongue virus cytopathic effect, confirmation, arbovirus, BSR cells (AID 1250); assay type: functional;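 also: protection from viral cytopathic effect measured as cell viability by ATP luminescence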
Ephrin type-A receptor 4 = Ephrin type-A receptor 4 (Mus musculus, UniProt Q03137); test: inhibitors of EphA4 binding to KYL peptide, primary screen, biochemical, colorimetric, mouse EphA4 (AID 689); assay type: functional
Chain of Ephrin type-A receptor 4 (Q03137 whole entry): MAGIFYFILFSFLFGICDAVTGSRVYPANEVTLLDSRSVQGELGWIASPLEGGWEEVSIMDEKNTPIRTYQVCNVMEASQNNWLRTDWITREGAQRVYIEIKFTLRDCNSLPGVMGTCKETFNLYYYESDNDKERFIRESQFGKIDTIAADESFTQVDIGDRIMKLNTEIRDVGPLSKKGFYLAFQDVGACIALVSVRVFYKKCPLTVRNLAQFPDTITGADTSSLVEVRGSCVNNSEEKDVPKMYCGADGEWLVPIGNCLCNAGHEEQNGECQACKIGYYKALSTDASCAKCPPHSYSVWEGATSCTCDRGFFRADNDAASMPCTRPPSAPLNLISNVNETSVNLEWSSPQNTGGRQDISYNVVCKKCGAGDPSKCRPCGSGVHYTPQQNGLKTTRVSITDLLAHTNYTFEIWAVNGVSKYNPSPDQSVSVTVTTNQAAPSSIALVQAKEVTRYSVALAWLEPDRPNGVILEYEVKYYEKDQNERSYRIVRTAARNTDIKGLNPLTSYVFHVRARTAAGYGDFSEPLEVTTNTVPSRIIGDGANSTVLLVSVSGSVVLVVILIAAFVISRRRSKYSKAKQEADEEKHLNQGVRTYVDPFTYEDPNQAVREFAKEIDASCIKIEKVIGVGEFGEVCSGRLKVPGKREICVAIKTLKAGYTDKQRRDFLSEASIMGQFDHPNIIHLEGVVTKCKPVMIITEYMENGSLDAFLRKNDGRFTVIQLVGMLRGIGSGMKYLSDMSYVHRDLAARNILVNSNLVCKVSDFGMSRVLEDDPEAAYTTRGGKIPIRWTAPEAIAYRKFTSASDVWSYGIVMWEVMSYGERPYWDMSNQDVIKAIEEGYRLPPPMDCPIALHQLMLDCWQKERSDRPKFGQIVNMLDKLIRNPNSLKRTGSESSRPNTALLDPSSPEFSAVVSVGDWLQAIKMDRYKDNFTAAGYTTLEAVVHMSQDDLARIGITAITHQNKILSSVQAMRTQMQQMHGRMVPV

Genome polyprotein = Genome polyprotein (Hepatitis C virus, UniProt Q2Q167); test: HCV core protein dimerization inhibitors, dose response, biochemical, TR-FRET (AID 2159); design: species or system Hepacivirus hominis;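 also: blocks dimerization of HCV core protein measured by TR-FRET between tagged core106 pairs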
Chain of Genome polyprotein (Q2Q167 whole entry): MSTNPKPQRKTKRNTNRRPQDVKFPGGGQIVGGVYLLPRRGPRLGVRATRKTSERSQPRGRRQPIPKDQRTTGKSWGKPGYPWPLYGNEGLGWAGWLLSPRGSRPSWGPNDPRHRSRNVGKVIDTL

[14] = biological target: T1, Alkaline phosphatase, tissue-nonspecific isozyme (Homo sapiens, UniProt P05186); test: TNAP enzyme activators, dose response, selectivity assay for human IAP activator project, biochemical, TNAP isozyme, human IAP uHTS hits (AID 488886); assay type: functional;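 also: potency of compounds raising TNAP activity as a selectivity check on IAP activators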
T1 sequence (P05186 whole entry): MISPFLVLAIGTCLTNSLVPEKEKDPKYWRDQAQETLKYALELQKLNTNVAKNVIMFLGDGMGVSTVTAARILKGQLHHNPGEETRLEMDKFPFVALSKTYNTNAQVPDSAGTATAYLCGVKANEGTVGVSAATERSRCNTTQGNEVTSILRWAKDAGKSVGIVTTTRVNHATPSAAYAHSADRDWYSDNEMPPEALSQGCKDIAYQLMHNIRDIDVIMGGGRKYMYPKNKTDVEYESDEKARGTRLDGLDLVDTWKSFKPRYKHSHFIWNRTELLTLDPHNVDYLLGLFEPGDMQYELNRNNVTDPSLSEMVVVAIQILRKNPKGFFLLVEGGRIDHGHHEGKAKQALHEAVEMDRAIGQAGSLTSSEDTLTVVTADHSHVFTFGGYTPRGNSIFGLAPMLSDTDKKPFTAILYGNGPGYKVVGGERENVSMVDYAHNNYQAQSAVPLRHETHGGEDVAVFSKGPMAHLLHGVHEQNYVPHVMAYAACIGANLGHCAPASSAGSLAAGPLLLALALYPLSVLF

cells [15] = assay type: functional, cell-based; remark: listed apart in the source
[16] = biological target: T2, Mannose-6-phosphate isomerase (Homo sapiens, UniProt P34949); test: inhibitors of human PMI, primary screen, biochemical, fluorescence intensity, coupled assay (AID 1209)
T2 sequence (P34949 whole entry): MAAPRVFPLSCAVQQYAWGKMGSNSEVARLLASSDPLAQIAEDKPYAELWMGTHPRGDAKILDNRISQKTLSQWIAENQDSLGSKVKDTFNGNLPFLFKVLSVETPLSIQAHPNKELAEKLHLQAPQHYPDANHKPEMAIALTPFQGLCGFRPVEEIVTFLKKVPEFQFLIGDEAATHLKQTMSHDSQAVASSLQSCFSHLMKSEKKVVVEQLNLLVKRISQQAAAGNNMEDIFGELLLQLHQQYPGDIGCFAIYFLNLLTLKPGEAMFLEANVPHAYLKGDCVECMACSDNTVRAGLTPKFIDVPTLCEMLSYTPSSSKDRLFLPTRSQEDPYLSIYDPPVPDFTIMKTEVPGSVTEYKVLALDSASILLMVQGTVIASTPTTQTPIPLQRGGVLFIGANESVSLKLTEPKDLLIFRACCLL

[17] = biological target: FAD-linked sulfhydryl oxidase ALR (Homo sapiens, UniProt P55789); test: inhibitors of human ALR sulfhydryl oxidase, dose response, biochemical, H2O2 detection, luminescence, cherry-pick (AID 493248)
Chain of FAD-linked sulfhydryl oxidase ALR (P55789 whole entry): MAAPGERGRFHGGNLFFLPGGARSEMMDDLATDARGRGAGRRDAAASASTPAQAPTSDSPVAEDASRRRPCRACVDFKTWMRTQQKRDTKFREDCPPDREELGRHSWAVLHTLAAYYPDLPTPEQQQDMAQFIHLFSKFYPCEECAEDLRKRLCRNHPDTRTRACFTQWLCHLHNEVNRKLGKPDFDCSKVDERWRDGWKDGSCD

[18] = biological target: Intestinal-type alkaline phosphatase (Mus musculus, UniProt P24822); test: PubChem AID 488874; assay type: functional
Chain of Intestinal-type alkaline phosphatase (Mus musculus, UniProt P24822) (P24822 whole entry): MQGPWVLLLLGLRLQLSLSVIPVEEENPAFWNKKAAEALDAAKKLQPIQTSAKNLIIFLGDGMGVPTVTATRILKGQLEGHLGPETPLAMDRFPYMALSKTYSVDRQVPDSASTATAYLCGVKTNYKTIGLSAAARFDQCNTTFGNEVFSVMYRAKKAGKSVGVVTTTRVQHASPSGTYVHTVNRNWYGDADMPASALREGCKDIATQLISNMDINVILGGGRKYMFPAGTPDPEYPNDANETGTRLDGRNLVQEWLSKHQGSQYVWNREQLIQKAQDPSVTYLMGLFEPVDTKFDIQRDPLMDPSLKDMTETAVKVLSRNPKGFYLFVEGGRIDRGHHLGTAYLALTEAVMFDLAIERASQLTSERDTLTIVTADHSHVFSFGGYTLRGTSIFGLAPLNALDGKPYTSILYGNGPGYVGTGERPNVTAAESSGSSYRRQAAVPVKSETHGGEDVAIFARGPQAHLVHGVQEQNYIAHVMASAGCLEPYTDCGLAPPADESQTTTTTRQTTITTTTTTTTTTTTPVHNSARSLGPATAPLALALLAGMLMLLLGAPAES

[19] = biological target: T3, Intestinal-type alkaline phosphatase (Homo sapiens, UniProt P09923); test: human IAP activators, dose response, biochemical, luminescent, uHTS hits, set 2 (AID 488817); assay type: functional;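 also: potency of activators that raise enzyme activity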
T3 sequence (P09923 whole entry): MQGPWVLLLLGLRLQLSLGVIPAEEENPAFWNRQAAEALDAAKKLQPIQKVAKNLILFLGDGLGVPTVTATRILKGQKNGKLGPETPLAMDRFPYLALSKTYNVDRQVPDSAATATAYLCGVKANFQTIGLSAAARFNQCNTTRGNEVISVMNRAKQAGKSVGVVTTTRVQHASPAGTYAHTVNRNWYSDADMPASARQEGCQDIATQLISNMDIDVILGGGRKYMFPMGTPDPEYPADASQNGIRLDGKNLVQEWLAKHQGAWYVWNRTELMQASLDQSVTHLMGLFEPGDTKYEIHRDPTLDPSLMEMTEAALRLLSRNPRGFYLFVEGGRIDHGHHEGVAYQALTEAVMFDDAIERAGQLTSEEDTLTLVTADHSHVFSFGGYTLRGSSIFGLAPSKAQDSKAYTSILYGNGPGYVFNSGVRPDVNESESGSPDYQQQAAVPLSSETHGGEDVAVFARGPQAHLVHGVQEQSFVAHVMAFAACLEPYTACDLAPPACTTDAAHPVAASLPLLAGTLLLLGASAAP

[20] = biological target: T3, Intestinal-type alkaline phosphatase; test: human intestinal alkaline phosphatase activators, dose response, biochemical, luminescence, uHTS hits (AID 463120); assay type: functional
cells [21] = assay type: functional, cell-based; remark: listed apart in the source
[22] = biological target: T4, Rac GTPase-activating protein 1 (Homo sapiens, UniProt Q9H0H5); test: MgcRacGAP GTPase-activating activity inhibitors, confirmation, biochemical, ADP Hunter fluorescence, primary and confirmatory (AID 624330); assay type: functional
T4 sequence (Q9H0H5 whole entry): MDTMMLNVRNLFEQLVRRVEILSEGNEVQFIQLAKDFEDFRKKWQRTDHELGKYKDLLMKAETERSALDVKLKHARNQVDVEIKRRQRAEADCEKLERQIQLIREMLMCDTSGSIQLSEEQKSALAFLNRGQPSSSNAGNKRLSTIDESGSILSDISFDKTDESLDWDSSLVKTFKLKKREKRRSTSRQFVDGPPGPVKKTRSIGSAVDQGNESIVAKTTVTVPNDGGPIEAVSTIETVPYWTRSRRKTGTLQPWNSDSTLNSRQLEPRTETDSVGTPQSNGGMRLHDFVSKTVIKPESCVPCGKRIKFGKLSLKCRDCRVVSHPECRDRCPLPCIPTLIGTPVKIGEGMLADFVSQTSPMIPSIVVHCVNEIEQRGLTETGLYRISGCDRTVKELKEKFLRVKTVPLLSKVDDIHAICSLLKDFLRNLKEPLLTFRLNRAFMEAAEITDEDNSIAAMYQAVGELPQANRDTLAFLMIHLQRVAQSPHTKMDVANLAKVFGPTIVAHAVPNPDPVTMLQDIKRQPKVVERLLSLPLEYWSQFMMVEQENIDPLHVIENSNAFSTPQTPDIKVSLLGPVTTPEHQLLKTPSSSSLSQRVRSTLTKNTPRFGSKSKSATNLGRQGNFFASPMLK

[23] = biological target: T2, Mannose-6-phosphate isomerase; test: human PMI inhibitors, high substrate, primary screen, biochemical, fluorescence intensity, high mannose 6-phosphate (AID 1220)
INS1 = test: beta cell apoptosis inhibitors, cytokine rescue, dose response, luminescence, retest (AID 449756); assay type: functional, cell-based; settings: Rattus norvegicus;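 also: cell death triggered by IL-1 beta plus TNF-alpha plus IFN-gamma mixture; protective hits raise ATP signal compared with cytokine alone wells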
[24] = Luminescence Cell-Based Dose Response HTS to Identify Inhibitors of 5'UTR Stem-Loop Driven Prion Protein mRNA Translation in H4 Neuroglioblastoma Cells. [Related pubchem assays: 1827 (Project Summary), 1813 (Primary HTS)]; assay type: functional
[25] = cytotoxicity in HEK-293T cells, dose response, cytotoxicity control for BCR NF-kB inhibitor project, luminescence, B-cell screen hits (AID 489021); assay type: functional, cell-based;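 also: HEK-293T cells carrying an NF-kB luciferase reporter; cells exposed to compound for about 14 hours before viability readout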

With `CCC(C)[C@H](NC(=O)OC(C)(C)C)C(=O)N/N=C/c1ccc2cc(OC)ccc2n1` (stereo partly drawn) the CC50 [1] was 36.2 µM (active) and the IC50 (cells [2]) was 39 µM (active).
With `CN(C)CCCCCN(C)Cc1cc2ccccc2o1` the EC50 (cells [3]) was 0.025 µM (active), the EC50 [4] was < 0.1 µM (active) and the EC50 [5] was 16.4 µM (active).
For `CCCCCC(=O)N[C@@H](c1ccccc1)[C@@H](O)C(=O)O[C@H]1C[C@@]2(O)[C@@H](OC(=O)c3ccccc3)C3[C@](C)(C(=O)[C@H](OC(C)=O)C(=C1C)C2(C)C)[C@@H](O)C[C@H]1OC[C@@]31OC(C)=O` (stereo partly drawn), the EC50 [6] was < 0.1 µM (active), the IC50 [7] was > 80 µM (inactive) and the EC50 [8] was 0.402 µM (active). For the same compound, the EC50 [9] was 0.229 µM (active), the EC50 (cells [10]) was 0.253 µM (active) and the EC50 [11] was < 0.1 µM (active). For the same compound, the IC50 [12] was 0.0618 µM (active).
With `COCCn1c(-c2ccccc2)cnc1SCC(=O)Nc1cccc2ccccc12` the IC50 [13] was 27.4 µM (active).
For `Nc1ccc(Br)c2c1C(=O)c1ccccc1C2=O`, the IC50 (Ephrin type-A receptor 4) was 13.5 µM (active).
For `Cc1cc(C(=O)N/N=C2\CC(=O)c3ccccc32)c(C)n1-c1ccc(F)cc1`, the IC50 (Genome polyprotein) was > 49.8 µM (not active).
For `CCn1c(C)nc2cc(C(=O)N/N=C/c3cccc(O)c3O)ccc21`, the EC50 [14] was 11 µM (active), the EC50 (cells [15]) was 10.9 µM (active) and the IC50 [16] was > 50 µM (not active). The AC50 [17] was 3.82 µM (active), the IC50 [18] was 44 µM (active) and the EC50 [19] was 9.71 µM (active). For the same compound, the EC50 [20] was 6.34 µM (active), the EC50 (cells [21]) was > 350 µM (not active) and the IC50 [22] was 119 µM (active). The IC50 [23] was > 50 µM (not active) and the AC50 (INS1) was 2.79 µM (active).
With `CCOc1ccc(-c2cc(CCCC(=O)NCc3ccco3)no2)cc1` the EC50 [24] was 17.4 µM (active), the EC50 [6] was < 0.1 µM (active) and the EC50 [8] was 1.87 µM (active). The EC50 [9] was 1.22 µM (active), the IC50 [25] was > 80 µM (inactive) and the EC50 (cells [10]) was 2.78 µM (active). For the same compound, the EC50 [11] was 14.5 µM (active).
